What all share (assay): Dundee protein kinase screen
Common to all, as to format: biochemical

For one assay, the target named is T1, MST2 (Homo sapiens, UniProt Q13188).
T1 sequence (Q13188 1-491): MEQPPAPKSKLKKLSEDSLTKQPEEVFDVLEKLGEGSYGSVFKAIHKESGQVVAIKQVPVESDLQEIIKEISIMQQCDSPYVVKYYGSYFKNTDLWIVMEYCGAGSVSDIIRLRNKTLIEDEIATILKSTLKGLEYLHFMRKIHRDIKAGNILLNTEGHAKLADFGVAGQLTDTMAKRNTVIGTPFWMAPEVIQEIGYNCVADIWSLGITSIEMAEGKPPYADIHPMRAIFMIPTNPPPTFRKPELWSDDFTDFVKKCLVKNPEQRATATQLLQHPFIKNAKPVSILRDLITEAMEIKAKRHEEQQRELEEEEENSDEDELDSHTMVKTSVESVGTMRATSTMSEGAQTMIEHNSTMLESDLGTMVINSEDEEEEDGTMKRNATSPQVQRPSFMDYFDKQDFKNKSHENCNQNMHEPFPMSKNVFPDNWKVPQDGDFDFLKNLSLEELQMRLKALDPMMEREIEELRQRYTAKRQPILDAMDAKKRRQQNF
The settings on record: MST2, 1µM; read-out: %Remaining activity at 1µM NU6300. The essentials:
(§1)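 Selectivity panel of 131 protein kinases, inhibitor tested at a single concentration of 1 µM; values are % kinase activity remaining, mean of duplicates. Re-test of selected kinases used 0.5 µM in the standard format and again after a 4 hour pre-incubation with the inhibitor.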

The next assay has as its target PIM3 (Homo sapiens, UniProt Q86V86). Conditions: PIM3, 1µM; read-out: %Remaining activity at 1µM NU6300. The essentials: as §1
A further assay deals with RSK1 (Homo sapiens, UniProt Q15418). The settings on record: RSK1, 1µM; read-out: %Remaining activity at 1µM NU6300. The essentials:
as §1

The target of the next assay is T2, TAO1 (Homo sapiens, UniProt Q7L7X3).
T2 sequence (Q7L7X3 1-1001): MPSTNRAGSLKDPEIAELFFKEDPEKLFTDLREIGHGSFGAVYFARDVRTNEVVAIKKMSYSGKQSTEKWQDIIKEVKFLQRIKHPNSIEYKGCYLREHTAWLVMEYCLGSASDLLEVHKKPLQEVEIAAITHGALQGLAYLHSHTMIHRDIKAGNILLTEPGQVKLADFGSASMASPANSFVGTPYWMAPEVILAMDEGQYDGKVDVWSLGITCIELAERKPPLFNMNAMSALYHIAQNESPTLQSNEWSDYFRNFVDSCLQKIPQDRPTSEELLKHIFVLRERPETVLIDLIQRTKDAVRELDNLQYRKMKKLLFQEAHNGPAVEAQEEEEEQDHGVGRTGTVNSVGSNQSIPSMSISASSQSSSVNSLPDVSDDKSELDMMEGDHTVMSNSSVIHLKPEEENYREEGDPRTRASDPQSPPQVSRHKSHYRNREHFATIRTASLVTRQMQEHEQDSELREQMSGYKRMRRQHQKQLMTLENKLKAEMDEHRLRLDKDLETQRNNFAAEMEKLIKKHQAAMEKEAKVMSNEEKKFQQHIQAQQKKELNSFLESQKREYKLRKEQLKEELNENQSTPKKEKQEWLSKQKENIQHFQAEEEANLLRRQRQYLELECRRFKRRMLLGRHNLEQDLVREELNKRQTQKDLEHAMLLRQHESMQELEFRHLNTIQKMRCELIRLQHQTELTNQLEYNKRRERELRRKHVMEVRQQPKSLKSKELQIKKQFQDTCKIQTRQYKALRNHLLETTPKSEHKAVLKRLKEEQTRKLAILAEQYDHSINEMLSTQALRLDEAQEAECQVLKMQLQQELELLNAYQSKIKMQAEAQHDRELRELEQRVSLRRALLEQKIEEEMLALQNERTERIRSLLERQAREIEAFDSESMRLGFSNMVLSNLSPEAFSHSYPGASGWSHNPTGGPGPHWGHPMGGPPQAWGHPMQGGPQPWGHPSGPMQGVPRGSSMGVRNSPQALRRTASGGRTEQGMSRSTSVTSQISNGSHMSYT
The settings on record: TAO1, 1µM; read-out: %Remaining activity at 1µM NU6300. The method, boiled down:
as §1

Broadly, the remaining activity is the activity still measured, relative to the control.

Chain of RSK1 (Q15418 whole entry): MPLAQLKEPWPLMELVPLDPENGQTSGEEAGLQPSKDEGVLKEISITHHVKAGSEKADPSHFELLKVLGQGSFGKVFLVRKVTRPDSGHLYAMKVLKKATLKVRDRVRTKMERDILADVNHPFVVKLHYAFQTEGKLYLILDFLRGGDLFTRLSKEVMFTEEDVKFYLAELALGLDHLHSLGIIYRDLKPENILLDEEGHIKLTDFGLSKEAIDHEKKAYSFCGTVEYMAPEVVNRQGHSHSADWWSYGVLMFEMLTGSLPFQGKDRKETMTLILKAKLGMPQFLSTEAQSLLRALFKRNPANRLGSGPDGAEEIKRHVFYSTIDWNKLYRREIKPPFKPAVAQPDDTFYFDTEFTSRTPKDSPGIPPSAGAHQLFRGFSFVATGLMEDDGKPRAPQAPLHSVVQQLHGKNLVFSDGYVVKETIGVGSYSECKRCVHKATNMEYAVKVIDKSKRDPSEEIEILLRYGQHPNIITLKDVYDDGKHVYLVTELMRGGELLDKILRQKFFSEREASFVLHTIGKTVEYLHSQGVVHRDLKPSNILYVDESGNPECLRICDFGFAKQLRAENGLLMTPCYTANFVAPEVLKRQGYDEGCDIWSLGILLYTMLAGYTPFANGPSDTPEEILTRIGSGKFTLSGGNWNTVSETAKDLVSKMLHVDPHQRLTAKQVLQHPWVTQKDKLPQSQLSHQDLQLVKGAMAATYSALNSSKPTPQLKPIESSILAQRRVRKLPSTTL

As to `C=CS(=O)(=O)c1ccc(Nc2nc(OCC3CCCCC3)c3nc[nH]c3n2)cc1` [NU6300, 6-(cyclohexylmethoxy)-N-(4-(vinylsulfonyl)phenyl)-9H-purin-2-amine], the remaining activity at 1 µM on MST2 turned out to be 41%; on PIM3, 56%; at RSK1 it was 50%; on TAO1, 27%.
